Assay results: patent publication US7727950B2, “Methods and reagents for assaying protein kinase activity” (The University of Dundee, priority 2002, dated 2010)
Each block holds one substance with its values, some of them ahead of it. Square brackets hold non-standard residues; d marks the D form. Ends that are not written are not given here. pS = N[C@@H](COP(=O)(O)O)C(=O)O

Experiments:
CHK1 = molecular target: T1, CHK1 (Homo sapiens, UniProt O14757); experiment: Kinetic parameters for peptide phosphorylation, radioactive filter-binding assay; assay type: biochemical; settings: Standard Substrate = KKKVSRSGLYRSPSMPENLNRPR
T1 construct: made in house; host or cells: Sf21 insect cells
T1 sequence (O14757 1-476): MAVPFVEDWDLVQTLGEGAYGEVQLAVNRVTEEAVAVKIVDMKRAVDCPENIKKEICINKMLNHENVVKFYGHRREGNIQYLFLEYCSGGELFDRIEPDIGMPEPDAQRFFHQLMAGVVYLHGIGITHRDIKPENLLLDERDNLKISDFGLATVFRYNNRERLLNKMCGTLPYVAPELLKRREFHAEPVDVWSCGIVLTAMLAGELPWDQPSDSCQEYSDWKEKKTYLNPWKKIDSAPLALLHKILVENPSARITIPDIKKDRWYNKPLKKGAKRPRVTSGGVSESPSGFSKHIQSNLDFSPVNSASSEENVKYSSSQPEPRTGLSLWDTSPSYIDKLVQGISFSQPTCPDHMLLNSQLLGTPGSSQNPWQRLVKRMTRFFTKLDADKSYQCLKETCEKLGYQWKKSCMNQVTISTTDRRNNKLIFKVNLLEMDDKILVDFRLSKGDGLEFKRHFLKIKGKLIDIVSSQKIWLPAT
Description: (§1) Apart from the AMP-activated protein kinase (AMPK, a gift from Drs S. Hawley and D. G. Hardie), cGMP-dependent protein kinase (PKG, a generous gift from Drs Susan Lohmann and Ulrich Walter, University of Wurzburg, Germany) and the catalytic subunit of cyclic AMP-dependent protein kinase (PKA, a gift from Dr C. Smythe), which were isolated from rat liver, bovine lung and bovine heart, respectively, all other protein kinases were expressed as either GST-fusion or His-tagged proteins (by a person, a person, Dr A. Paterson or a person, in this Division). The expressed proteins all corresponded to the human sequences apart from the rat Rho-dependent protein kinase (ROCK-II) and rat mitogen-activated protein kinase (MAPK) activated kinase-1a (MAPKAP-K1a, also called RSK). GST-fusion proteins were purified on GSH-agarose (Amersham Pharmacia Biotech, Amersham, UK) and His-tagged proteins on Ni-NTA agarose (Qiagen) essentially according to the manufacturer's instructions. All the protein kinases used in this study are available from Upstate Biotechnology Inc. (Lake Placid, N.Y., USA), apart from the α-isoform of calmodulin-dependent protein kinase II (CaMKII), MAPKAP-K3 and PKG. […]
(§2) All protein kinase assays were linear with respect to time. […] All papers were subsequently washed a further three times in phosphoric acid, once in acetone, then dried and counted for radioactivity. […] The plates were then washed six times (five min per wash) in PBS, 0.1% Tween 20 and binding of the phospho-specific antibody detected by incubating the plates with peroxidase-conjugated anti-sheep antibodies (Pierce). […] Signals were quantitated on LAS-1000IR software (FujiFilm). […]

CHK2 = molecular target: T2, CHK2 (Homo sapiens, UniProt O96017); experiment: as above; assay type: biochemical; settings: Standard Substrate = KKKVSRSGLYRSPSMPENLNRPR
T2 construct: an additional His-tag at the extreme C-terminus, to aid purification of the full-length product; GST; His-tag (C); made in house; host or cells: E. coli
Description: as §1, with “RSK).” for “RSK). GST-fusion proteins were purified on GSH-agarose (Amersham Pharmacia Biotech, Amersham, UK) and His-tagged proteins on Ni-NTA agarose (Qiagen) essentially according to the manufacturer's instructions. All the protein kinases used in this study are available from Upstate Biotechnology Inc. (Lake Placid, N.Y., USA), apart from the α-isoform of calmodulin-dependent protein kinase II (CaMKII), MAPKAP-K3 and PKG.”
as §2

[1] = test system: peptide LpSFAEPGC conjugated to bovine serum albumin; experiment: Immunoblot of phospho-specific antibody with peptide competition (FIG. 1); assay type: binding; settings: competition studies
Method: Aliquots (10 ng or 100 ng) of the peptide LpSFAEPGC (SEQ ID NO: 17) conjugated to bovine serum albumin were spotted on to a nitrocellulose membrane and immunoblotted with the phospho-specific antibody raised against the phospho-peptide immunogen in the presence or absence of the peptides shown on the right. The prefix “p” before S denotes the serine-phosphorylated form of the peptide.
Antibodies that recognise the common seven residue phosphorylated motif (LpSFAEPG) (SEQ ID NO:7) contained within each of the three generic peptide substrates described under results, were raised against the peptide LpSFAEPGC (SEQ ID NO:17) (where pS represents phosphoserine). The C-terminal cysteine residue was added to enable coupling to keyhole limpet haemocyanin. The peptide-protein conjugate was injected into sheep at Diagnostic Scotland (Carluke, U.K.) and the anti-sera purified on protein G-Sepharose (Amersham Pharmacia Biotech) by Dr J. Leitch in this Unit. Antibodies were used at a concentration of 2 μg/ml for immunoblotting and 10-20 μg/ml for detection of phosphorylated peptides in the modified ELISA format. Rabbit anti-sheep antibodies conjugated to peroxidase were obtained from Pierce (Tattenhall, Cheshire, UK) and used at 1/10,000 dilution. […]

ROCKII = molecular target: T3, ROCKII (Rattus norvegicus, UniProt Q62868); experiment: Kinetic parameters for peptide phosphorylation, radioactive filter-binding assay; assay type: biochemical; settings: Standard Substrate = KEAKEKRQEQIAKRRRLSSLRASTSKSGGSQK
T3 construct: rat ROCKII[1-543]; made in house; host or cells: Sf21 insect cells
Description: as §1, §2

PKCα = molecular target: T4, PKCα (Homo sapiens, UniProt P17252); experiment: as above; assay type: biochemical; settings: Standard Substrate = histone H1
T4 construct: purchased Calbiochem Novachem Corp; host or cells: Sf21 insect cells
Description: as §1, §2

T3 sequence (Q62868 1-543): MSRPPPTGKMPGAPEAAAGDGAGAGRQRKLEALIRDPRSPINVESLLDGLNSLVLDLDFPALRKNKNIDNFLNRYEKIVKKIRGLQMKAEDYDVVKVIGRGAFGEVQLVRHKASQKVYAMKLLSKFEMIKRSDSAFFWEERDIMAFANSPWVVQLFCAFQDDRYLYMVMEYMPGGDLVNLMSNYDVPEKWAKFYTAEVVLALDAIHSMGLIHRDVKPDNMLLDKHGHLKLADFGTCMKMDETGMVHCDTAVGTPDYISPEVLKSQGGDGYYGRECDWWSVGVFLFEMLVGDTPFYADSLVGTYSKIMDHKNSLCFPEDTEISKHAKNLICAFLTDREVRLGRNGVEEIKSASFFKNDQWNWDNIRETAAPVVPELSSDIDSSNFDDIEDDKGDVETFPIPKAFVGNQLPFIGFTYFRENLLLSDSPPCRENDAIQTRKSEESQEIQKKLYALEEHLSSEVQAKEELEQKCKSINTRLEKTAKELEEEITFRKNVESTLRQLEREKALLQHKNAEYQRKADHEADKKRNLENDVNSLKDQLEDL
T2 sequence (O96017 whole entry): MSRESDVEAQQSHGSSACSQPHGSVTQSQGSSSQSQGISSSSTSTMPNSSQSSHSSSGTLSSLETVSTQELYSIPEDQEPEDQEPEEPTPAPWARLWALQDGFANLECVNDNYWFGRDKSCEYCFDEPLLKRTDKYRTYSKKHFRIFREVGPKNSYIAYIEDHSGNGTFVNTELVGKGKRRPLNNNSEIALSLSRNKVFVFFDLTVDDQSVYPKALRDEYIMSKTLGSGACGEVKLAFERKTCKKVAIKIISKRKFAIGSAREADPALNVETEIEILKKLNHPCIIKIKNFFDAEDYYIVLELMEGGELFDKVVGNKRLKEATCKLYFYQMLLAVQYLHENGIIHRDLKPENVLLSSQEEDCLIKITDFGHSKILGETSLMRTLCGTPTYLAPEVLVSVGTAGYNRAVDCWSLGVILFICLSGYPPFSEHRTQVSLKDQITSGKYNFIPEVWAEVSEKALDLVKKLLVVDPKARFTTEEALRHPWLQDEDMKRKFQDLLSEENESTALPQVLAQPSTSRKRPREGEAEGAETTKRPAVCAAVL

Km (CHK1): 5 µM | Km (CHK2): > 300 µM
Substance: RARTLSFAEPG

Substance: LpSFAEPG (L[pS]FAEPG) [seven residue phospho-peptide antigen, pS is phosphoserine]
neutralisation of the phosphopeptide antibody by pre-incubation with peptide [1]: neutralised

Km (ROCKII): > 100 µM | Km (PKCα): > 500 µM
Substance: RRRLSFAEPG
